Laboratory results: patent US20170304223A1, “METHOD OF TREATING PROSTATE CANCER USING A PKC INHIBITOR” (priority 2016, published 2017)

Key:
RWPE cells = experiment: Cell proliferation assay / cell counting, RWPE cells; type: cell-based, human; conditions: 10 μM, non-malignant cells (RWPE)
Protocol: (§1) RWPE epithelial cells and DU-145 human prostate carcinoma cells were purchased from American Type Culture Collection (ATCC). PC-3 cells were acquired from Moffit Cancer center. The cells were grown as a monolayer in a T25 tissue culture flask with 5 mL of growth medium and maintained in a 37 C incubator with 5% CO2. The E-MEM and F-12 growth media were obtained from ATCC. The medium was supplemented with 10% fetal bovine serum (FBS) and a mix of the antibiotics Penicillin (10,000 IU) and Streptomycin (10,000 μg/ml) in a 100× concentration which was purchased from Corning.
(§2) RWPE, DU 145 and PC-3 cells were cultured in a T25 cell culture flasks. 20,000 cells were seeded into each. […] The treatment was repeated over the course of 72 hours and samples were taken at 24 hour intervals.
(§3) RWPE, DU 145, and PC-3 cells were cultured in a T25 cell culture flasks. At assigned intervals the cells were trypsonized and put into a 1.5 mL microcentrifuge tube. Cells were inverted gently to keep the solution homogeneous and then the Cell Scepter by Millipore was used to measure cell numbers.

PKC-τ = biological target: T1, PKC-τ (Homo sapiens, UniProt P41743); experiment: PKC-iota levels in prostate cells by Western blot after treatment; type: cell-based; conditions: 72 hours after treatment
T1 construct: endogenous in cells; host or cells: DU-145
T1 sequence (P41743 1-596): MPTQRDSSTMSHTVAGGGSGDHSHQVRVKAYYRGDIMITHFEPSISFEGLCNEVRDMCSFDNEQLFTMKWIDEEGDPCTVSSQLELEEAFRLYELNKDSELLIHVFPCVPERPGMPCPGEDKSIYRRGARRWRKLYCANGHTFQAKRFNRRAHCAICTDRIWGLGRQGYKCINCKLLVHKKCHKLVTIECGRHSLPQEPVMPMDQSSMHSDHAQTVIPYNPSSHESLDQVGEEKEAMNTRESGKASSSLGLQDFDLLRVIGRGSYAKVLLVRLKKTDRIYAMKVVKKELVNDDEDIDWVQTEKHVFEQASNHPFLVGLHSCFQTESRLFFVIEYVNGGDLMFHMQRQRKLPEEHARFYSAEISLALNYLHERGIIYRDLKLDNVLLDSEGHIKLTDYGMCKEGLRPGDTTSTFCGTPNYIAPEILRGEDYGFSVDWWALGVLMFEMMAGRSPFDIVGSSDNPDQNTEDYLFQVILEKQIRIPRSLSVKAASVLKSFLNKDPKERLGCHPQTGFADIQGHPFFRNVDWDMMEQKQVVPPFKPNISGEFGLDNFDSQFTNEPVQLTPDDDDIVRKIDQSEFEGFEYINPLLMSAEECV
Protocol: Protein was harvested from cultured cells using Lysis Buffer purchased from Cell Signaling. Protein content was measured according to the Bradford method. Tissue extracts containing equal amounts of protein in each lane were run on SDS-PAGE gels. The tissue lysates (50 μg) were Western blotted for PKC-τ (10 μg, 1:2500 dilution): and PKC-ζ (5 μg, 1:4000 dilution) and β-actin (10 μg, 1:3000 dilution).
(§4) Western blots were developed on the Protein Simple Flour Chem M. Accompanied by the Alpha view software for analysis.
ICA-1 was used as a PKC-iota inhibitor. […] The cells were counted before and after the treatments and a statistical analysis was performed. Following cell counting, the cells were lysed and levels of PKC-iota and PKC-zeta were measured by Western blotting and immunoprecipitation.

DU-145 cells = experiment: Cell proliferation assay / cell counting, DU-145 cells; type: cell-based, human
Protocol: as §1, §2, §3

Survivin = experiment: Apoptotic marker Survivin by Western blot; type: cell-based, human
PC-3 cells = experiment: Cell proliferation assay / cell counting, PC-3 cells; type: cell-based, human
Protocol: as §1, §2, §3

NF-kB = NF-kB translocation after TNF-α exposure (cell subfractionation); type: cell-based, human; conditions: DU-145 and PC-3 cells (cell line not specified), 10 μM, vs untreated control
Protocol: 20,000 cells were seeded into each.
as §4

Cytochrome C = experiment: Apoptotic marker Cytochrome C by Western blot; type: cell-based, human
[1] = DU-145 cells, 72 hours of treatment
[2] = RWPE cells, 72 hours of treatment

NC(=O)c1ncn([C@H]2C[C@@H](COP(=O)(O)O)[C@H](O)[C@@H]2O)c1N [ICA-1]
decrease in cell population (dose-response curve) (RWPE cells): not having a significant decrease
average decrease in PKC-τ (PKC-τ; DU-145 cells): 46%
decrease in PKC-τ (PKC-τ; PC-3 cells): 40%
decrease in cell population (dose-response curve) (DU-145 cells; 10 μM, malignant cells (DU-145)): statistically significant decrease in population
reduction in cell growth compared to untreated cells (DU-145 cells; DU-145 cells): 19%
reduction of Survivin (in words) (Survivin; [1]): reduction of Survivin by half
decrease in Survivin (Survivin; PC-3 cells): 40%
decrease in Survivin (Survivin; [2]): 10%
average decline of cell population (PC-3 cells): 18%
decrease of nucleic NFkB (NF-kB): 5 fold
increase in Cytochrome C (Cytochrome C; [1]): ~3 fold
increase in Cytochrome C (Cytochrome C; PC-3 cells): 2 fold
increase of Cytochrome C (Cytochrome C; [2]): 8%
